# Experimental data from US8524899B2, “Alternative heterocycles for DNA recognition” (California Institute of Technology, priority 2003, dated 2013).
# Key:
# [1] = test system: 5′-AGWWCT-3′ (W=A, T); assay: DNase I footprint titration, multiple Hz/Py pairs; format: binding
# Protocol: FIG. 17 is a table showing the association equilibrium constant Ka[M^−1] for polyamide oligomers H and K. The reported association constants are the average values obtained from three DNase I footprint titration experiments, with the standard deviation given in parenthesis. Assays were carried out at 22° C. at pH 7.0 in the presence of 10 mM Tris-HCl, 10 mM KCl, 10 mM MgCl2, and 5 mM CaCl2 at pH 7.0.
# For polyamides Im-Hz-Py-Py-γ-Im-Hz-Py-Py-β-Dp (oligomer H) and Im-Py-Hz-Py-γ-Im-Py-Hz-Py-β-Dp (oligomer K) the ability of multiple Hz/Py pairs to distinguish poly A,T sequences was tested by varying two DNA base pairs across from the Hz/Py and Py/Hz pairs (bolded in the sequences listed above) within the parent-sequence context, 5′-AGWWCT-3′, (W=A, T) and comparing the relative affinities of the resulting complexes (FIG. 16). Equilibrium association constants (Ka) for polyamide oligomers containing multiple Hp/Py pairs have been reported and are included for comparison with values presented here (FIG. 17). […] The recognition profiles of polyamide oligomers containing multiple Hz/Py pairs (oligomers H and K) are similar to those reported for multiple Hp/Py pairs.
# Footprinting Experiments.—Plasmids pDHN1 and pDEH10 were constructed and 5′-radiolabeled as previously described. […]
# [2] = test system: EcoRI/PvuII restriction fragment of plasmid pCAB2 (5′-TGGXAA-3′); assay: Quantitative DNase I footprint titration, X•Y position, plasmid pCAB2; format: binding
# Text: FIG. 10 illustrates the equilibrium association constants Ka[M^−1] and specificities for polyamide oligomers D-F, R, S, and V on plasmids pAU2 and pCAB2 (X•Y position).
# When replacing PyPy, PyIm, and PyHp dimers with BiPy (as in oligomer D), BiIm (as in oligomer E), and BiHp constructs (as in oligomer F), respectively, the question arises whether a) the benzimidazole ring is capable of cooperating with the imidazole ring on the opposite strand of the hairpin polyamide to specifically recognize a C•G base pair according to the binding model and the general pairing rules, and b) whether the steric and electronic peculiarities of the benzimidazole ring disturb the binding ability of the adjacent heterocycle. […]
# (§1) Evaluation of the DNA recognition properties of the new ligands oligomers D, E, and F at the imidazole/benzimidazole position (referred to as R•S position) should reveal the sequence preference of the benzimidazole ring. […] To examine the consequences of the ring replacement for DNA binding in terms of affinity and specificity, the benzimidazole-containing hairpin polyamides oligomers D, E, and F were evaluated by quantitative DNase I footprint titrations and the results compared to those from related oligomers R, S, and V, which were investigated under identical conditions. Quantitative DNase I footprint titration experiments (10 mm Tris-HCl, 10 mm KCl, 10 mm MgCl2, 5 mm CaCl2, pH 7.0, 22° C., equilibration time: 12 h) were performed on ^32P-3′-labeled EcoRI/PvuII restriction fragments of plasmids pPWF2 and pCAB1 (to probe the R•S position, FIG. 7); and pAU2 and pCAB2 (to probe the X•Y position, FIG. 8). Equilibrium association constants (Ka) for the polyamide oligomers at the binding sites of interest were determined as described above in Example 3.
# [3] = test system: EcoRI/PvuII restriction fragment of plasmid pCAB1 (5′-TGRCAA-3′); assay: Quantitative DNase I footprint titration, R•S position, plasmid pCAB1; format: binding
# Text: (§2) FIG. 9 illustrates the equilibrium association constants Ka[M^−1] and specificities for polyamide oligomers D-F, R, S, and V on plasmids pPWF2 and pCAB1 (R•S position).
# (§3) When replacing PyPy, PyIm, and PyHp dimers with BiPy (as in oligomer D), BiIm (as in oligomer E), and BiHp constructs (as in oligomer F), respectively, the question arises whether a) the benzimidazole ring is capable of cooperating with the imidazole ring on the opposite strand of the hairpin polyamide to specifically recognize a C•G base pair according to the binding model and the general pairing rules, and b) whether the steric and electronic peculiarities of the benzimidazole ring disturb the binding ability of the adjacent heterocycle. In order to address this question for the given polyamide design, the recognition behavior of the benzimidazole-containing polyamides was probed in two of the six base pair positions R•S and X•Y of the recognition sequence (5′-TGRACA-3′ and 5′-TGGXCA-3′ for oligomers D and F; 5′-TGRCAA-3′ and 5′-TGGXAA-3′ for oligomer E; FIG. 6) and compared with the DNA-binding ability of the related all five-membered oligomers R, S, and V at the same recognition sequences.
# (§4) Evaluation of the DNA recognition properties of the new ligands oligomers D, E, and F at the imidazole/benzimidazole position (referred to as R•S position) should reveal the sequence preference of the benzimidazole ring. The binding properties at the neighboring ring position (referred to as X•Y position) were expected to disclose whether the recognition capabilities of the adjacent internal five-membered ring are disturbed by the benzimidazole moiety. To examine the consequences of the ring replacement for DNA binding in terms of affinity and specificity, the benzimidazole-containing hairpin polyamides oligomers D, E, and F were evaluated by quantitative DNase I footprint titrations and the results compared to those from related oligomers R, S, and V, which were investigated under identical conditions. Quantitative DNase I footprint titration experiments (10 mm Tris-HCl, 10 mm KCl, 10 mm MgCl2, 5 mm CaCl2, pH 7.0, 22° C., equilibration time: 12 h) were performed on ^32P-3′-labeled EcoRI/PvuII restriction fragments of plasmids pPWF2 and pCAB1 (to probe the R•S position, FIG. 7); and pAU2 and pCAB2 (to probe the X•Y position, FIG. 8). Equilibrium association constants (Ka) for the polyamide oligomers at the binding sites of interest were determined as described above in Example 3.
# [4] = test system: EcoRI/PvuII restriction fragment of plasmid pAU2 (5′-TGGXCA-3′); assay: Quantitative DNase I footprint titration, X•Y position, plasmid pAU2; format: binding; conditions: match and mismatch sites
# Text: FIG. 10 illustrates the equilibrium association constants Ka[M^−1] and specificities for polyamide oligomers D-F, R, S, and V on plasmids pAU2 and pCAB2 (X•Y position). […]
# as §1
# [5] = test system: EcoRI/PvuII restriction fragment of plasmid pPWF2 (5′-TGRACA-3′); assay: Quantitative DNase I footprint titration, R•S position, plasmid pPWF2; format: binding; conditions: for match site Ka, R•S position: 5′-TGRACA-3′ match site, pH 7.0, 22° C., 12 h; for match site affinity compared with related all five-membered oligomer, R•S position / single base pair mismatch specificities compared with related oligomer, R•S position: D vs R, F vs V
# Text: as §2, §3, §4
# [6] = Stability at acidic pH; format: physicochemical
# [7] = test system: 32P-3′-labeled EcoRI/PvuII restriction fragment of plasmid pDR1 (sites 5′-TGTCTA-3′, 5′-TGTTTA-3′, 5′-TGTATA-3′, 5′-TGTGTA-3′); assay: Quantitative DNase I footprint titration on pDR1 restriction fragment; format: binding
# Protocol: FIG. 4 illustrates the equilibrium association constants Ka[M^−1] for Polyamide Oligomers A-C, N, Q, and P. The reported association constants are the average values obtained from three DNase I footprint titration experiments, with the standard deviation for each data set indicated in the experiments. Assays were carried out at 22° C. at pH 7.0 in the presence of 10 mM Tris-HCl, 10 mM KCl, 10 mM MgCl2, and 5 mM CaCl2 with an equilibration time of 12 h. Specificities are give in brackets under the Ka values and calculated as Ka (match)/Ka (mismatch).
# To examine whether an imidazo[4,5-b]pyridine unit Ip can replace a five-membered imidazole ring Im within an eight-ring hairpin polyamide regarding DNA binding affinity and specificity, polyamide oligomer A and its related all five-membered ring hairpin oligomer N were evaluated by DNase I footprint titrations under identical conditions. Quantitative DNase I footprint titration experiments (10 mM Tris-HCl, 10 mM KCl, 10 mM MgCl2, 5 mM CaCl2, pH 7.0, 22° C., equilibration time: 12 h) were performed on a ^32P-3′-labeled EcoRI/PvuII restriction fragment of plasmid pDR1 0 (FIG. 2). This DNA fragment contains four 6-base pair binding sites which differ at one position, 5′-TGTCTA-3′,5′-TGTTTA-3′,5′-TGTATA-3′, and 5′-TGTGTA-3′. The latter one was regarded as the possible match site having a G•C base pair under the Ip/Py or Im/Py pair, respectively.
# Construction of plasmid DNA. The plasmid pDR1 was constructed by hybridization of the two oligonucleotides 5′-GATCAGGCTGTC-[…]-GCTGCTGTTTATGGACG-GCTGCTGTATATGGACGG-CTGGGCGA-3′ (SEQ ID NO:1) and 5′-AGCTTCGC-[…]-[…]-3′ (SEQ ID NO:2) followed by ligation into the BamHI/HinDIII restriction fragment of pUC19 using T4 DNA ligase. The resultant plasmid was then used to transform E. coli XL-1 Blue Supercompetent cells. Ampicillin-resistant white colonies were selected from 25 mL Luria-Bertani agar plates containing […] ampicillin, treated with XGAL and IPTG solutions and grown overnight at 37° C. Cells were harvested after overnight growth at 37° C. Large-scale plasmid purification was performed with Qiagen, purification kits. The presence of the desired insert was determined by dideoxy sequencing. DNA concentrations were determined at 260 nm using the relationship 1 OD unit) 50 μg/mL duplex DNA.
# Preparation of 3′-End-Labeled DNA Restriction Fragments. The plasmid pDR1 was linearized with EcoRI and PVuII and treated with the Klenow fragment of DNA […], [R-^32P]-dATP, and [R-^32P]-TTP for 3′-end labeling. The labeled 3′-fragment was purified on a 7% nondenaturing polyacrylamide gel (5% cross-linkage) and the desired 284 base pair band isolated after visualization by autoradiography. The DNA was precipitated with 2-propanol, the pellet washed, lyophilized, and resuspended in RNase-free H2O. Chemical sequencing reactions were performed according to published protocols. (Troschütz, R.; Lückel, A. Arch. Pharm., 325, 617-619, 1992.)
# DNase I Footprinting. All reactions were carried out in a volume of 400 μL according to published procedures. Quantitation by storage phosphor autoradiography and determination of equilibrium association constants were as previously described. (Trauger, J. W.; Dervan, P. B. Methods Enzymol., 340, 450-466, 2001.)
smiles,measurement,setting,value
CN(C)CCCNC(=O)CCNC(=O)c1cc(NC(=O)c2ccc3nc(-c4cc(NC(=O)c5nc(NC(=O)CCCNC(=O)c6cc(NC(=O)c7ccc8nc(-c9cc(NC(=O)c%10nccn%10C)cn9C)[nH]c8c7O)cn6C)cn5C)cn4C)[nH]c3c2O)cn1C [K],specificity for match sequence 5′-AGTACT-3′ over 5′-AGAACT-3′ and 5′-AGATCT-3′,[1],poor site selectivity
CN(C)CCCNC(=O)CCNC(=O)c1cc(NC(=O)c2cc(NC(=O)c3ccc4nc(-c5nc(NC(=O)CCCNC(=O)c6cc(NC(=O)c7cc(NC(=O)c8ccc9nc(-c%10nccn%10C)[nH]c9c8O)cn7C)cn6C)cn5C)[nH]c4c3O)cn2C)cn1C [H],specificity for match sequence 5′-AGTACT-3′ over 5′-AGAACT-3′ and 5′-AGATCT-3′,[1],greater than 14 fold
CNC(=O)c1cc(NC(=O)c2ccc3nc(-c4nc(NC(=O)c5cc(NC(=O)[C@H](N)CCNC(=O)c6cc(NC(=O)c7cc(NC(=O)c8nc(NC(=O)c9nccn9C)cn8C)cn7C)cn6C)cn5C)cn4C)[nH]c3c2)cn1C [E],"match site Ka, X•Y position","[2]; 5′-TGGXAA-3′ match site, pH 7.0, 22° C., 12 h",1.9e+10 M⁻¹
same,"match site affinity compared with related oligomer S, X•Y position",[2]; E vs S,six-fold higher
same,"single base pair mismatch specificities compared with related oligomer S, X•Y position",[2]; E vs S,mildly diminished
same,"match site Ka, R•S position","[3]; 5′-TGRCAA-3′ match site, pH 7.0, 22° C., 12 h",3.1e+10 M⁻¹
same,"match site affinity compared with related all five-membered oligomer, R•S position",[3]; E vs S,six to seven-fold higher
same,"match site/mismatch site discrimination compared with related oligomer, R•S position",[3]; R=A,comparable
same,"match site/mismatch site discrimination compared with related oligomer, R•S position",[3]; R=T or C,at least ten-fold lower
CNC(=O)c1cc(NC(=O)c2ccc3nc(-c4cc(NC(=O)c5nc(NC(=O)[C@H](N)CCNC(=O)c6cc(NC(=O)c7cc(NC(=O)c8nc(NC(=O)c9nccn9C)cn8C)cn7C)cn6C)cn5C)cn4C)[nH]c3c2)cn1C [D],"binding affinities and specificities compared with related oligomers R, V, X•Y position",[4],same order of magnitude
same,"match site Ka, R•S position",[5],4.9e+10 M⁻¹
same,"match site affinity compared with related all five-membered oligomer, R•S position",[5],comparable
same,"single base pair mismatch specificities compared with related oligomer, R•S position",[5],lower by roughly one order of magnitude
CNC(=O)c1cc(NC(=O)c2cc(NC(=O)c3cc(NC(=O)c4cc(NC(=O)[C@H](N)CCNC(=O)c5cc(NC(=O)c6ccc7nc(-c8cc(NC(=O)c9nccn9C)cn8C)[nH]c7c6O)cn5C)cn4C)cn3C)cn2C)cn1C [B],stability at acidic pH,[6],stable
same,selectivity of T•A over A•T,[7]; 5′-TGTTTA-3′ vs A•T site,18 fold
same,binding at C•G site,"[7]; C•G site (5′-TGTCTA-3′), for Q concentration range up to 200 nM",No binding was observed
same,lower affinity at G•C mismatch site 5′-TGTGTA-3′,[7]; relative to match site 5′-TGTTTA-3′,at least 80 fold
same,equilibrium association constant Ka,"[7]; site 5′-TGTTTA-3′ (T•A), pH 7.0, 22° C., equilibration 12 h",5.7e+08 M⁻¹
CNC(=O)c1cc(NC(=O)c2ccc3nc(-c4c(O)c(NC(=O)c5nc(NC(=O)[C@H](N)CCNC(=O)c6cc(NC(=O)c7cc(NC(=O)c8nc(NC(=O)c9nccn9C)cn8C)cn7C)cn6C)cn5C)cn4C)[nH]c3c2)cn1C [F],"binding affinities and specificities compared with related oligomers R, V, X•Y position",[4],same order of magnitude
same,"match site Ka, R•S position",[5],2.5e+10 M⁻¹
same,"match site affinity compared with related all five-membered oligomer, R•S position",[5],six to seven-fold higher
same,"single base pair mismatch specificities compared with related oligomer, R•S position",[5],comparable
